Assay [1] has as its target T1, Human recombinant enteropeptidase (Homo sapiens, UniProt P98073).
T1 construct: purchased ITSI-Biosciences LLC #REN-260
The assay can be described thus: Human enteropeptidase inhibitory activity. It is filed as biochemical. The note with it: 1 μM test compound; fluorescence intensity at 2 hours after start of reaction; read-out: Inhibition rate at 1 μM. The procedure:
Test Example 1: Human Enteropeptidase Inhibitory Activity
Human recombinant enteropeptidase (#REN-260, ITSI-Biosciences LLC) was diluted with an assay buffer (50 mM Tricine, pH 8.0, 0.01 (w/v) %, Tween 20, 10 mM CaCl2)) to prepare a 24 mU/mL enzyme solution. Subsequently, 5FAM-Abu-Gly-Asp-Asp-Asp-Lys-Ile-Val-Gly-Gly-Lys(CPQ2)-Lys-Lys-NH2 (CPC Scientific Inc.) was diluted with the assay buffer to prepare a 2.1 μM substrate solution. A test compound is dissolved in DMSO into a 10 mM solution, and the solution was diluted with the assay buffer to give a compound solution. To a 384-well black plate (#784076, Greiner Bio-One), 5 μL of the compound solution and 5 μL of the substrate solution were added and mixed, and 5 μL of the enzyme solution was then added to the mixture, followed by mixing to start the reaction. The fluorescence intensity was measured with a fluorescence plate reader EnVision (The Perkin-Elmer Corp.) at an excitation wavelength of 485 nm and a fluorescence wavelength of 535 nm. The same reaction as above was performed without the addition of the test compound (test compound non-addition group). Furthermore, the same reaction as above was performed without the addition of the test compound and the enzyme (control group). The inhibition rate was calculated using the fluorescence intensity at 2 hours after the start of the reaction by the following expression:
Inhibition rate (%)=(1−((fluorescence intensity of test compound addition group)−(fluorescence intensity of control group))/((fluorescence intensity of test compound non-addition group)−(fluorescence intensity of control group)))×100

For the next assay, the system named is High fat diet-fed mice. Briefly: Fecal protein concentration-increasing test using high fat diet-fed mouse. The assay is classed as in vivo. As to conditions: Mus musculus, po, 24 h, 30 mg/kg oral, feces of first day of administration, vehicle group = 100, read-out: Fecal protein concentration-increasing rate. An excerpt: Test Example 2: Fecal Protein Concentration-Increasing Test Using High Fat Diet-Fed Mouse
High fat diet-fed mice (D12451 diet, male, 10- to 50-week old) were orally administered with a 0.5% methyl cellulose suspension containing a test compound (compound administration group, five mice per group) or a 0.5% methyl cellulose suspension (compound non-administration group (vehicle group), five mice per group), and whole feces were collected on the first day of administration. Dried feces were dissolved in 0.5 N NaOH, followed by centrifugation at 12,000 rpm. The protein concentration in the supernatant was then quantitatively measured (Lowry method), and the amount of protein contained in 1 g of feces was calculated as the fecal protein concentration (mg/g feces). The fecal protein concentration-increasing rate was calculated by the following expression.
Fecal protein concentration-increasing rate (%)=Fecal protein concentration of compound administration group/Fecal protein concentration of vehicle group×100

Each structure is given as a SMILES string.

T1 sequence (P98073 whole entry): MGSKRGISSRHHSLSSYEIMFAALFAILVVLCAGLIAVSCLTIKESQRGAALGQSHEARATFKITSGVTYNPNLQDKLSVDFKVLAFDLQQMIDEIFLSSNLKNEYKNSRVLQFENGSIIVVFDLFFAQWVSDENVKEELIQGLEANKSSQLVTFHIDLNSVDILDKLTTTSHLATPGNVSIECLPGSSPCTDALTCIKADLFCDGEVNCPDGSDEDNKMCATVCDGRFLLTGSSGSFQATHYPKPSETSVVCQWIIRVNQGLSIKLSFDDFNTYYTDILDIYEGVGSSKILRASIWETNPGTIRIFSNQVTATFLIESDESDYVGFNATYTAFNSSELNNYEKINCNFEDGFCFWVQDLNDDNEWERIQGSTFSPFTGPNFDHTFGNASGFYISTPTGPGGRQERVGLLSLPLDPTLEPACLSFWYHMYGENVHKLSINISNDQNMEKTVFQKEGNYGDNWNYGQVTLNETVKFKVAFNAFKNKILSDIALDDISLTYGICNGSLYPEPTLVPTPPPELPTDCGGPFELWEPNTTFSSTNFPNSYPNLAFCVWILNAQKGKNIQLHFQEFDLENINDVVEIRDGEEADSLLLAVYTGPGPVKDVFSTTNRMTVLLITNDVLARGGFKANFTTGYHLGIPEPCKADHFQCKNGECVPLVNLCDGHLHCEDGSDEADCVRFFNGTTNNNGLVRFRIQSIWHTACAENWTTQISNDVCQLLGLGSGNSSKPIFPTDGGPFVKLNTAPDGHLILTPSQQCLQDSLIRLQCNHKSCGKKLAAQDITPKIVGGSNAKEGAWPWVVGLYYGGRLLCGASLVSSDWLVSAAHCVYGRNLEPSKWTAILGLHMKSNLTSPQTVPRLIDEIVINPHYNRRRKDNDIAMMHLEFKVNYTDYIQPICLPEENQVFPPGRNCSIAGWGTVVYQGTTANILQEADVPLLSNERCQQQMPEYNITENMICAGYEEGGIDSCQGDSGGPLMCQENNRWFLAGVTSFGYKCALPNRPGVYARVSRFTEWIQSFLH

Usually inhibition stands for the share of the control response that was lost under treatment. In the case of `N=C(N)Nc1ccc(C(=O)Oc2cc(OCCOCCOCCOc3cc(OC(=O)c4ccc(NC(=N)N)cc4)cc(C(=O)N[C@H](CO)C(=O)O)c3)cc(C(=O)N[C@H](CO)C(=O)O)c2)cc1` [Example 10, (2R)-2-[[3-[2-[2-[2-[3-[[(1R)-1-Carboxy-2-hydroxyethyl]carbamoyl]-5-(4-guanidinobenzoyl)oxyphenoxy]ethoxy]ethoxy]ethoxy]-5-(4-guanidinobenzoyl)oxybenzoyl]amino]-3-hydroxypropanoic acid], in assay [1], the inhibition at 1 µM came to 92%. Besides, the response vs control in vivo at 30 mg/kg with High fat diet-fed mice stood at 179%.

In the case of `N=C(N)Nc1ccc(C(=O)Oc2cc(OCCOCCOCCOc3cc(OC(=O)c4ccc(NC(=N)N)cc4)cc(C(=O)N[C@H](CCCCN)C(=O)O)c3)cc(C(=O)N[C@H](CCCCN)C(=O)O)c2)cc1` [Example 11, (2R)-6-Amino-2-[[3-[2-[2-[2-[3-[[(1R)-5-amino-1-carboxypentyl]carbamoyl]-5-(4-guanidinobenzoyl)oxyphenoxy]ethoxy]ethoxy]ethoxy]-5-(4-guanidinobenzoyl)oxybenzoyl]amino]hexanoic acid], in assay [1], the inhibition at 1 µM was 60%. Besides, the response vs control in vivo at 30 mg/kg in the assay on High fat diet-fed mice came out at 171%.

Take `N=C(N)Nc1ccc(C(=O)Oc2ccc(CCC(=O)N[C@H](CC(=O)O)C(=O)O)c(OCCOCCOc3cc(OC(=O)c4ccc(NC(=N)N)cc4)ccc3CCC(=O)N[C@H](CC(=O)O)C(=O)O)c2)cc1` [Example 13, (2R)-2-[3-[2-[2-[2-[2-[3-[[(1R)-1,2-Dicarboxyethyl]amino]-3-oxopropyl]-5-(4-guanidinobenzoyl)oxyphenoxy]ethoxy]ethoxy]-4-(4-guanidinobenzoyl)oxyphenyl]propanoylamino]butanedioic acid]: in assay [1], the inhibition at 1 µM was 100%. Moreover, the response vs control in vivo at 30 mg/kg in the assay with High fat diet-fed mice was 150%.

Regarding `N=C(N)Nc1ccc(C(=O)Oc2ccc(CCC(=O)N[C@H](CC(=O)O)C(=O)O)c(OCCOCCOCCOc3cc(OC(=O)c4ccc(NC(=N)N)cc4)ccc3CCC(=O)N[C@H](CC(=O)O)C(=O)O)c2)cc1` [Example 14, (2R)-2-[3-[2-[2-[2-[2-[2-[3-[[(1R)-1,2-Dicarboxyethyl]amino]-3-oxopropyl]-5-(4-guanidinobenzoyl)oxyphenoxy]ethoxy]ethoxy]ethoxy]-4-(4-guanidinobenzoyl)oxyphenyl]propanoylamino]butanedioic acid], in assay [1], the inhibition at 1 µM was 100%. The response vs control in vivo at 30 mg/kg with High fat diet-fed mice turned out to be 171%.

For `N=C(N)Nc1ccc(C(=O)Oc2cc(OCCOCCOc3cc(OC(=O)c4ccc(NC(=N)N)cc4F)cc(C(=O)N[C@H](CC(=O)O)C(=O)O)c3)cc(C(=O)N[C@H](CC(=O)O)C(=O)O)c2)c(F)c1` [Example 18, (2R)-2-[[3-[2-[2-[3-[[(1R)-1,2-Dicarboxyethyl]carbamoyl]-5-(2-fluoro-4-guanidinobenzoyl)oxyphenoxy]ethoxy]ethoxy]-5-(2-fluoro-4-guanidinobenzoyl)oxybenzoyl]amino]butanedioic acid], the inhibition at 1 µM in assay [1] amounted to 100%. Moreover, the response vs control in vivo at 30 mg/kg with High fat diet-fed mice turned out to be 142%.

With `N=C(N)Nc1ccc(C(=O)Oc2ccc(OCCOCCOc3ccc(OC(=O)c4ccc(NC(=N)N)cc4)cc3C(=O)N[C@H](CC(=O)O)C(=O)O)c(C(=O)N[C@H](CC(=O)O)C(=O)O)c2)cc1` [Example 19, (2R)-2-[[2-[2-[2-[2-[[(1R)-1,2-Dicarboxyethyl]carbamoyl]-4-(4-guanidinobenzoyl)oxyphenoxy]ethoxy]ethoxy]-5-(4-guanidinobenzoyl)oxybenzoyl]amino]butanedioic acid], the inhibition at 1 µM in assay [1] came out at 100%. In addition, in the assay with High fat diet-fed mice, the response vs control in vivo at 30 mg/kg is 215%.

Values taken from patent US20210403420A1, “BENZOATE COMPOUND” (SCOHIA PHARMA, INC., priority 2018, published 2021).
